Experimental findings from DBAASP are described below.

SMILES strings stand for the structures. In brackets after ≈: the same amount, converted by molar mass.

Holding throughout (assay): ≥ marks a high value that may be exact or a test limit, other limits are often not marked, values filed in µg/mL are converted to µM
Assay [1] concerns Mycobacterium tuberculosis H37Rv.
A further assay relates to Streptococcus mutans.
In assay [2] the test system is Bacillus subtilis ATCC 6051.
The test system of assay [3] is Enterococcus faecalis ATCC 29212.
For a further assay, the system named is Streptococcus agalactiae.
Assay [4] concerns Staphylococcus aureus ATCC 25923.
In assay [5] the test system is Escherichia coli ATCC 25922.

In general, MIC refers to the lowest concentration that inhibits growth of the organism. High values mean a need for much substance, low ones inhibition by little substance. In the case of `CC[C@H](C)[C@H](NC(=O)[C@H](CCCCN)NC(=O)[C@@H](NC(=O)[C@H](Cc1ccccc1)NC(=O)[C@@H](NC(=O)[C@@H]1CCCN1C(=O)[C@H](CS)NC(=O)[C@H](C)N)[C@@H](C)CC)[C@@H](C)O)C(=O)N[C@@H](CCC(N)=O)C(=O)NCC(=O)N[C@H](C(=O)N[C@@H](CS)C(=O)N[C@@H](Cc1ccc(O)cc1)C(=O)N[C@@H](CCCN=C(N)N)C(=O)NCC(=O)O)[C@@H](C)O` [ACPIFTKIQGTCYRG], the MIC in assay [1] is 12.1 µM (≈ 20 µg/mL).

The compound `NC(=O)[C@H](Cc1ccccc1)NC(=O)[C@H](Cc1c[nH]c2ccccc12)NC(=O)[C@H](CCCN=C(N)N)NC(=O)[C@H](Cc1c[nH]c2ccccc12)NC(=O)[C@H](CCCN=C(N)N)NC(=O)[C@H](Cc1c[nH]c2ccccc12)NC(=O)[C@H](CCCN=C(N)N)NC(=O)[C@@H]1CCCN1C(=O)[C@H](CO)NC(=O)CNC(=O)[C@H](CO)NC(=O)[C@@H]1CCCN1C(=O)[C@H](Cc1ccccc1)NC(=O)[C@H](Cc1c[nH]c2ccccc12)NC(=O)[C@H](CCCN=C(N)N)NC(=O)[C@H](Cc1c[nH]c2ccccc12)NC(=O)[C@H](CCCN=C(N)N)NC(=O)[C@H](Cc1c[nH]c2ccccc12)NC(=O)[C@@H](N)CCCN=C(N)N` [RWRWRWFPSGSPRWRWRWF] showed an MIC against Streptococcus mutans of 11.5 µM (≈ 32 µg/mL).

Compound `CC(C)C[C@H](NC(=O)[C@H](CC(C)C)NC(=O)[C@H](CCCCN)NC(=O)[C@H](CCCCN)NC(=O)[C@H](CC(C)C)NC(=O)[C@H](CCCCN)NC(=O)[C@H](CCCCN)NC(=O)[C@H](CC(C)C)NC(=O)[C@H](CC(C)C)NC(=O)[C@H](CCCCN)NC(=O)[C@H](CCCCN)NC(=O)[C@H](CC(C)C)NC(=O)[C@@H](N)CCCCN)C(=O)N[C@@H](CCCCN)C(=O)O` [KLKKLLKKLKKLLK] had an MIC against Streptococcus mutans of 4.64 µM (≈ 8 µg/mL). This MIC is about 2.5-fold lower than that of the compound before.

In assay [1], `CC[C@H](C)[C@H](NC(=O)[C@H](CC(C)C)NC(=O)[C@@H](N)CCCN=C(N)N)C(=O)N[C@@H](CCCN=C(N)N)C(=O)N[C@H](C(=O)N[C@@H](CCC(=O)O)C(=O)N[C@@H](CCCN=C(N)N)C(=O)N[C@@H](CC(=O)O)C(=O)N[C@@H](CO)C(=O)N[C@H](C(=O)N[C@@H](CCC(=O)O)C(=O)N[C@@H](C)C(=O)N[C@@H](CC(C)C)C(=O)N[C@@H](CCSC)C(=O)N[C@@H](CCCN=C(N)N)C(=O)N1CCC[C@H]1C(=O)N[C@H](C(=O)NCC(=O)N[C@@H](CCCCN)C(=O)O)[C@@H](C)CC)C(C)C)C(C)C` [RLIRVERDSVEALMRPIGK] yielded an MIC of at least 89.3 µM.

In assay [2], `NCCCC[C@H](NC(=O)[C@H](CCC(=O)O)NC(=O)[C@H](CC(=O)O)NC(=O)[C@H](CCC(=O)O)NC(=O)[C@H](CC(=O)O)NC(=O)[C@H](CCC(=O)O)NC(=O)[C@H](CC(=O)O)NC(=O)[C@H](CCC(N)=O)NC(=O)[C@H](CCCN=C(N)N)NC(=O)[C@@H](N)CO)C(=O)N[C@@H](CCCN=C(N)N)C(=O)N[C@@H](CCCN=C(N)N)C(=O)N1CCC[C@H]1C(=O)N[C@@H](CCCN=C(N)N)C(=O)O` [SRQDEDEDEKRRPR] had an MIC of at least 1000 µM.

Consider `CC(C)C[C@H](NC(=O)[C@H](C)N)C(=O)N[C@@H](Cc1ccc(O)cc1)C(=O)N[C@@H](CCCCN)C(=O)N[C@@H](CCCCN)C(=O)N[C@@H](Cc1ccccc1)C(=O)N[C@@H](CCCCN)C(=O)N[C@@H](CCCCN)C(=O)N[C@@H](CCCCN)C(=O)N[C@@H](CC(C)C)C(=O)N[C@@H](CC(C)C)C(=O)N[C@@H](CCCCN)C(=O)N[C@@H](CO)C(=O)N[C@@H](CC(C)C)C(=O)N[C@@H](CCCCN)C(=O)N[C@@H](CCCN=C(N)N)C(=O)N[C@@H](CC(C)C)C(=O)NCC(=O)O` [ALYKKFKKKLLKSLKRLG], for which the MIC in assay [3] came to 8.7 µM (≈ 18.8 µg/mL); in the assay on Streptococcus agalactiae it was 4.3 µM (≈ 9.3 µg/mL); in assay [4] it was 69.4 µM (≈ 150 µg/mL); in assay [5], 8.7 µM (≈ 18.8 µg/mL).
